According to patent publication US20110070232A1, “Combination Therapy with an Antitumor Alkaloid” (Pharma Mar, S.A., priority 2008, published 2011):
Read-outs that look alike come from different tables or passages of the source.

What was measured:
MRI-H-254 tumors = assay type: in vivo, mice
Experimental: Female athymic nude mice (Harlan Sprague Dawley, Madison, Wis.) were utilized for all experiments. Animals were housed in ventilated rack caging with food and water ad libitum. The mice were acclimated for at least 5 days prior to tumor implantation with tumor fragments.
Treatments were initiated on DPI 20.
(§1) Tumor size measurements were recorded twice weekly from the treatment initiation until the termination of the study.
(§2) Mean, standard deviation and standard error of the mean were determined for tumor volume for all animal groups at all assessments. Student's t test was performed on tumor volumes at each measurement day, including at the end of the study, to determine whether there were any statistically significant differences between combination treatment groups and single monotherapy treatment groups.

[1] = system: HCT-116 (colon cancer) cell line; test: IC50 determination, MIT (tetrazolium) assay, 72 h (Example 18); assay type: cell-based, human; conditions: HCT-116, 72 hours of drug exposure
Experimental: HCT-116 cells were grown in McCoy's supplemented with 10% Fetal Bovine Serum (FBS), 1% penicillin/streptomycin and 2 mM L-glutamine.
(§3) Before plating, cell cultures were trypsinized and cell number estimated using an automated flow cytometer.
(§4) Cells were harvested and seeded in 96 well microtiter plates at the appropriate cell density (5,000-10,000 cells) in 150 μL of media and incubated for 24 hours to allow the cells to attach before drug addition.
(§5) After the incubation period (72 hours), 50 μL of MIT solution was added to each microtiter well and incubated for further 8 hours at 37° C. The culture medium was then removed and 50 μl, of DMSO were added to dissolve the MIT crystals. Optical densities were read at 540 nm on spectrophotometer microplate reader.
(§6) IC50 values were calculated from an average of two to four assays for each of the test agents.

Hs746T tumors = assay type: in vivo, mice; conditions: for % T/C on day 14 / % T/C on day 19 / % T/C on day 22 / % T/C on day 26 / % T/C on day 29 / % T/C on day 32 / % T/C on day 39: PM00104 0.90 IV, DPI 14, 21, 28
Experimental: Female athymic nude mice (Harlan Sprague Dawley, Madison, Wis.) were utilized for all experiments. Animals were housed in ventilated rack caging with food and water ad libitum. The mice were acclimated for at least 5 days prior to tumor implantation with a tumor cell suspension.
The tumor model used in these studies was Hs746T cell line, which was obtained from the ATCC (Manassas, Va.).
Treatments were initiated on DPI 14.
as §1, §2

[2] = system: HGC-27 human gastric carcinoma cell line; test: IC50 determination, MTS assay, 72 h (Example 1); assay type: cell-based; conditions: 72 hours of drug exposure
Method in brief: (§7)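 Cells are seeded at 10,000 per well and allowed to attach for 24 h, then exposed to compound for 72 h. Viability is read by MTS/PMS, 4 h at 37 °C, with OD at 490 nm, and referenced to a time-0 plate. IC50 is averaged from two to four assays.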

[3] = system: Hs746T human gastric carcinoma cell line; test: IC50 determination, MTS assay, 72 h (Example 1); assay type: cell-based; conditions: 72 hours of drug exposure
Method in brief: as §7

[4] = system: AGS human gastric carcinoma cell line; test: IC50 determination, MTS assay, 72 h (Example 1); assay type: cell-based; conditions: 72 hours of drug exposure
Method in brief: as §7

[5] = system: LoVo (colon cancer) cell line; test: IC50 determination, MIT (tetrazolium) assay, 72 h (Example 18); assay type: cell-based, human; conditions: 72 hours of drug exposure
Experimental: as §3, §4, §5, §6

[6] = system: HT-29 (colon cancer) cell line; test: as above; assay type: cell-based, human; conditions: HT-29, 72 hours of drug exposure
Experimental: as §3, §4, §5, §6

[7] = PM00104 0.90 IV, docetaxel 8 IP, oxaliplatin 4 IP mg/kg/day (G4, G6, G8, G10), DPI 20, 27, 34
[8] = PM00104 0.90 IV, docetaxel 16 IP, oxaliplatin 8 IP mg/kg/day (G2, G3, G5, G7, G9), DPI 20, 27, 34
[9] = docetaxel 8 IP, oxaliplatin 4 IP mg/kg/day (G4, G6, G8, G10)
[10] = docetaxel 16 IP, oxaliplatin 8 IP mg/kg/day (G2, G3, G5, G7, G9)

## O=C1[O][Pt]2([NH][C@@H]3CCCC[C@H]3[NH]2)[O]C1=O [Oxaliplatin, oxaliplatin]
MRI-H-254 tumors; [7]
  % T/C on day 20: 94.5%
  % T/C on day 23: 118.5%
  % T/C on day 27: 113.6%
  % T/C on day 33: 107.6%
  % T/C on day 36: 115.1%
  % T/C on day 40: 115.0%
  % T/C on day 48: 92.4%
MRI-H-254 tumors; [8]
  % T/C on day 20: 95.1%
  % T/C on day 23: 100.9%
  % T/C on day 27: 77.2%
  % T/C on day 30: 81.7%
  % T/C on day 33: 75.0%
  % T/C on day 36: 71.1%
  % T/C on day 40: 67.5%
  % T/C on day 48: 55.9%
MRI-H-254 tumors; day 20, PM00104 0.9 and oxaliplatin 4 mg/kg/day
  % Inhibition: 5.5%
MRI-H-254 tumors; day 20, PM00104 0.9 and oxaliplatin 8 mg/kg/day
  % Inhibition: 4.9%
MRI-H-254 tumors; day 23, PM00104 0.9 and oxaliplatin 4 mg/kg/day
  % Inhibition: −18.5%
MRI-H-254 tumors; day 23, PM00104 0.9 and oxaliplatin 8 mg/kg/day
  % Inhibition: −0.9%
MRI-H-254 tumors; day 27, PM00104 0.9 and oxaliplatin 4 mg/kg/day
  % Inhibition: −13.6%
MRI-H-254 tumors; day 27, PM00104 0.9 and oxaliplatin 8 mg/kg/day
  % Inhibition: 22.8%
MRI-H-254 tumors; day 30, PM00104 0.9 and oxaliplatin 4 mg/kg/day
  % Inhibition: −17.1%
MRI-H-254 tumors; day 30, PM00104 0.9 and oxaliplatin 8 mg/kg/day
  % Inhibition: 18.3%
MRI-H-254 tumors; day 33, PM00104 0.9 and oxaliplatin 4 mg/kg/day
  % Inhibition: −7.6%
MRI-H-254 tumors; day 33, PM00104 0.9 and oxaliplatin 8 mg/kg/day
  % Inhibition: 25.0%
MRI-H-254 tumors; day 36, PM00104 0.9 and oxaliplatin 4 mg/kg/day
  % Inhibition: −15.1%
MRI-H-254 tumors; day 36, PM00104 0.9 and oxaliplatin 8 mg/kg/day
  % Inhibition: 28.9%
MRI-H-254 tumors; day 40, PM00104 0.9 and oxaliplatin 4 mg/kg/day
  % Inhibition: −15.0%
MRI-H-254 tumors; day 40, PM00104 0.9 and oxaliplatin 8 mg/kg/day
  % Inhibition: 32.5%
MRI-H-254 tumors; day 48, PM00104 0.9 and oxaliplatin 4 mg/kg/day
  % Inhibition: 7.6%
MRI-H-254 tumors; day 48, PM00104 0.9 and oxaliplatin 8 mg/kg/day
  % Inhibition: 44.1%
[1]
  IC50: 140 µM
Hs746T tumors; [9]
  % T/C on day 14: 99.9%
  % T/C on day 19: 79.9%
  % T/C on day 22: 83.8%
  % T/C on day 26: 78.6%
  % T/C on day 29: 84.2%
  % T/C on day 32: 87.5%
  % T/C on day 39: 108.4%
Hs746T tumors; [10]
  % T/C on day 14: 99.6%
  % T/C on day 19: 83.5%
  % T/C on day 22: 84.9%
  % T/C on day 26: 89.1%
  % T/C on day 29: 84.5%
  % T/C on day 32: 91.2%
  % T/C on day 39: 102.9%
Hs746T tumors; day 14, PM00104 0.9 and oxaliplatin 4 mg/kg/day
  % Inhibition: 0.1%
Hs746T tumors; day 14, PM00104 0.9 and oxaliplatin 8 mg/kg/day
  % Inhibition: 0.4%
Hs746T tumors; day 19, PM00104 0.9 and oxaliplatin 4 mg/kg/day
  % Inhibition: 20.1%
Hs746T tumors; day 19, PM00104 0.9 and oxaliplatin 8 mg/kg/day
  % Inhibition: 16.5%
Hs746T tumors; day 22, PM00104 0.9 and oxaliplatin 4 mg/kg/day
  % Inhibition: 16.2%
Hs746T tumors; day 22, PM00104 0.9 and oxaliplatin 8 mg/kg/day
  % Inhibition: 15.1%
Hs746T tumors; day 26, PM00104 0.9 and oxaliplatin 4 mg/kg/day
  % Inhibition: 21.4%
Hs746T tumors; day 26, PM00104 0.9 and oxaliplatin 8 mg/kg/day
  % Inhibition: 10.9%
Hs746T tumors; day 29, PM00104 0.9 and oxaliplatin 4 mg/kg/day
  % Inhibition: 15.8%
Hs746T tumors; day 29, PM00104 0.9 and oxaliplatin 8 mg/kg/day
  % Inhibition: 15.5%
Hs746T tumors; day 32, PM00104 0.9 and oxaliplatin 4 mg/kg/day
  % Inhibition: 12.5%
Hs746T tumors; day 32, PM00104 0.9 and oxaliplatin 8 mg/kg/day
  % Inhibition: 8.8%
Hs746T tumors; day 39, PM00104 0.9 and oxaliplatin 4 mg/kg/day
  % Inhibition: −8.4%
Hs746T tumors; day 39, PM00104 0.9 and oxaliplatin 8 mg/kg/day
  % Inhibition: −2.9%
[2]
  IC50: 0.192 µg/mL
[3]
  IC50: 8.14 µg/mL
[4]
  IC50: 0.289 µg/mL
[5]
  IC50: 3.2 µM
[6]
  IC50: 38 µM
